Test results published in US12264139B2, “Aryl sulfonamides as BLT1 antagonists” (Merck Sharp & Dohme LLC, priority 2015, dated 2025).

Target: T1, human BLT1 receptor (Homo sapiens, UniProt Q15722)
T1 construct: expressed in transfected cells; host or cells: HEK293
Assay: BLT-1 cAMP Assay
Type: cell-based
Conditions: HEK293 cells recombinantly expressing human BLT1; antagonist activity vs forskolin 4 μM and LTB4 2 nM; cAMP (CisBio kit)
Experimental: The ability of compounds to antagonize the human BLT1 receptor was determined using a kit to measure changes in intracellular cyclic AMP levels (cAMP dynamic assay kit, Cisbio Cat. No. 62AM4PEC). […] The cell suspension was centrifuged at 200×g for 10 min and then resuspended in fresh assay medium to a density of 2.5×10^5 cells/mL. […] All subsequent liquid additions were performed using a BIORAPTR (FRD; Beckman Coulter). Next, 5 μL of cell suspension was added and incubated for 20 min. at 37° C. and 5% CO2 in a humidified plastic tray.
The levels of cAMP were detected using the CisBio kit following the manufacturer's instructions: cAMP-d2 vial was reconstituted with distilled water and then diluted accordingly with conjugate & lysis buffer. 5 µL of cAMP-d2 working solution was added to all of the wells of the assay plate. cAMP-Cryptate vial was reconstituted with distilled water and then diluted accordingly with conjugate & lysis buffer. 5 µL of cAMP-Cryptate working solution were added to the assay plate. The assay plate was shaken for 3 minutes and incubated at room temperature for 45 minutes, then read on Perkin Elmer Envision. cAMP standard curve and fit data were plotted using a 4 parameter dose response curve fitting algorithm to fit curve. […] After normalization to treated and untreated controls, the percent effect of signal at each compound concentration was calculated. The plot of percent effect versus the log of compound concentration was fit with a 4-parameter concentration response equation to calculate EC50 values.

T1 sequence (Q15722 whole entry): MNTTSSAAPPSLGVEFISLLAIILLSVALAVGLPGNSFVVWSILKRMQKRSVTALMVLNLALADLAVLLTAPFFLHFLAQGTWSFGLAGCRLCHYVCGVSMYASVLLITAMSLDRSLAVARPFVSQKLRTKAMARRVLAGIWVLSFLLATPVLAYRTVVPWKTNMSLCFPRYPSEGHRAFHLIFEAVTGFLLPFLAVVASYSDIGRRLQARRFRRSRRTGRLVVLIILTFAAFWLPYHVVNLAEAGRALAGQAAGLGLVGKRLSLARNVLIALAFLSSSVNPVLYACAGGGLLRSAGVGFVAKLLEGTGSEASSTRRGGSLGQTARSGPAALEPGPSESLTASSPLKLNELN

Row | Compound | EC50 [nM]
1 | Cc1nc(C[C@@H]2COc3cc(-c4ccccc4NS(=O)(=O)C(F)(F)F)ccc3[C@H]2O)cs1 (racemic) [Example 16, 1,1,1-Trifluoro-N-(2-{(rac-trans)-4-hydroxy-3-[(2-methyl-1,3-thiazol-4-yl)methyl]-3,4-dihydro-2H-chromen-7-yl}phenyl)methanesulfonamide] | 826
2 | Cn1nc(-c2ccccc2)cc1C[C@H]1COc2cc(-c3ccccc3NS(=O)(=O)C(F)(F)F)ccc2[C@@H]1O (racemic) [Example 35, 1,1,1-Trifluoro-N-(2-((rac-trans)-4-hydroxy-3-((1-methyl-3-phenyl-1H-pyrazol-5-yl)methyl)chroman-7-yl)phenyl)methanesulfonamide] | 824
3 | O=S(=O)(Nc1ccccc1-c1ccc2c(c1)OC[C@H](Cc1ncccc1F)[C@H]2O)C(F)(F)F (racemic) [Example 19, 1,1,1-Trifluoro-N-(2-{(rac-trans)-3-[(3-fluoropyridin-2-yl)methyl]-4-hydroxy-3,4-dihydro-2H-chromen-7-yl}phenyl)methanesulfonamide] | 1600
4 | O=S(=O)(Nc1ccccc1-c1ccc2c(c1)OC[C@@H](Cc1cscn1)[C@@H]2O)C(F)(F)F (racemic) [Example 32, 1,1,1-trifluoro-N-(2-((3,4-rac-trans)-4-hydroxy-3-(thiazol-4-ylmethyl)chroman-7-yl)phenyl)methanesulfonamide] | 17
5 | O=S(=O)(Nc1ccccc1-c1ccc2c(c1)OC[C@H](Cc1ccc(F)cn1)[C@H]2O)C(F)(F)F (racemic) [Example 29, 1,1,1-Trifluoro-N-(2-((rac-trans)-3-((5-fluoropyridin-2-yl)methyl)-4-hydroxychroman-7-yl)phenyl)methanesulfonamide] | 464
6 | O=S(=O)(Nc1ccccc1-c1ccc2c(c1)OC[C@@H](Cc1ccc(-c3ccccc3)cn1)[C@@H]2O)C(F)(F)F (racemic) [Example 38, 1,1,1-Trifluoro-N-(2-{(rac-trans)-4-hydroxy-3-((5-phenylpyridin-2-yl)methyl)chroman-7-yl)phenyl)methanesulfonamide] | 4
7 | O=S(=O)(Nc1ccccc1-c1ccc2c(c1)OC[C@H](Cc1cnccn1)[C@H]2O)C(F)(F)F (racemic) [Example 27, 1,1,1-Trifluoro-N-{2-[(rac-trans)-4-hydroxy-3-(pyrazin-2-ylmethyl)-3,4-dihydro-2H-chromen-7-yl]phenyl}methanesulfonamide] | 209
8 | O=S(=O)(Nc1ccccc1-c1ccc2c(c1)OC[C@@H](Cc1cscn1)[C@H]2O)C(F)(F)F (racemic) [Example 31, 1,1,1-trifluoro-N-(2-(3,4-rac-cis)-4-hydroxy-3-(thiazol-4-ylmethyl)chroman-7-yl)phenyl)methanesulfonamide] | 1370
9 | O=S(=O)(Nc1ccccc1-c1ccc2c(c1)OC[C@H](Cc1ccncc1)[C@H]2O)C(F)(F)F (single isomer, unassigned) [Example 26, 1,1,1-trifluoro-N-{2-[(3S,4R or 3R,4S)-4-hydroxy-3-(pyridin-4-ylmethyl)-3,4-dihydro-2H-chromen-7-yl]phenyl}methanesulfonamide] | 121
10 | O=S(=O)(Nc1ccccc1-c1ccc2c(c1)OC[C@@H](Cc1cnc(-c3ccccc3)s1)[C@@H]2O)C(F)(F)F (single isomer, unassigned) [Example 42, 1,1,1-Trifluoro-N-(2-((3S,4R or 3R,4S)-4-hydroxy-3-((2-phenylthiazol-5-yl)methyl)chroman-7-yl)phenyl)methanesulfonamide] | 445
11 | O=S(=O)(Nc1ccccc1-c1ccc2c(c1)OC[C@H](Cc1ncco1)[C@H]2O)C(F)(F)F (racemic) [Example 15, 1,1,1-Trifluoro-N-{2-[(rac-trans)-4-hydroxy-3-(1,3-oxazol-2-ylmethyl)-3,4-dihydro-2H-chromen-7-yl]phenyl}methanesulfonamide] | 994
12 | O=S(=O)(Nc1ccccc1-c1ccc2c(c1)OC[C@H](Cc1cscn1)[C@H]2O)C(F)(F)F (single isomer, unassigned) [Example 50, 1,1,1-trifluoro-N-{2-[(3R,4S or 3S,4R)-4-hydroxy-3-(1,3-thiazol-4-ylmethyl)-3,4-dihydro-2H-chromen-7-yl]phenyl}-methanesulfonamide] | 29
13 | O=S(=O)(Nc1ccccc1-c1ccc2c(c1)OC[C@H](Cc1ccc(-c3ccccc3)cn1)[C@H]2O)C(F)(F)F (single isomer, unassigned) [Example 39, (2-((3S,4R or 3R,4S)-4-hydroxy-3-((5-phenylpyridin-2-yl)methyl)chroman-7-yl)phenyl)((trifluoromethyl)sulfonyl)amide] | 1

Other lines, results leading:

Row | EC50 [nM] | Compound
14 | 1610 | O=S(=O)(Nc1ncc(F)cc1-c1ccc2c(c1)OC[C@@H](Cc1ccccn1)[C@@H]2O)C(F)(F)F (single isomer, unassigned) [Example 84, 1,1,1-Trifluoro-N-(5-fluoro-3-((3,4-trans)-4-hydroxy-3-(pyridin-2-ylmethyl)chroman-7-yl)pyridin-2-yl)methanesulfonamide]
15 | 4040 | Cc1cnc(C[C@@H]2COc3cc(-c4ccccc4NS(=O)(=O)C(F)(F)F)ccc3[C@H]2O)s1 (single isomer, unassigned) [Example 52, 1,1,1-trifluoro-N-(2-{(3S,4R or 3R,4S)-4-hydroxy-3-[(5-methyl-1,3-thiazol-2-yl)methyl]-3,4-dihydro-2H-chromen-7-yl}phenyl)methanesulfonamide]
16 | 23 | O=S(=O)(Nc1ccccc1-c1ccc2c(c1)OC[C@H](Cc1cccs1)[C@H]2O)C(F)(F)F (single isomer, unassigned) [Example 62, 1,1,1-trifluoro-N-{2-[(3S,4R or 3R,4S)-4-hydroxy-3-(thiophen-2-ylmethyl)-3,4-dihydro-2H-chromen-7-yl]phenyl}methanesulfonamide]
17 | 2690 | O=S(=O)(Nc1nnc(Cl)cc1-c1ccc2c(c1)OC[C@@H](Cc1ccccn1)[C@@H]2O)C(F)(F)F (single isomer, unassigned) [Example 91, N-(6-chloro-4-((3S,4R or 3R,4S)-4-hydroxy-3-(pyridin-2-ylmethyl)chroman-7-yl)pyridazin-3-yl)-1,1,1-trifluoromethanesulfonamide]
18 | 156 | O=S(=O)(Nc1ncccc1-c1ccc2c(c1)OC[C@@H](Cc1ccccn1)[C@@H]2O)C(F)F (single isomer, unassigned) [Example 86, 1,1-Difluoro-N-(3-((3,4-trans)-4-hydroxy-3-(pyridin-2-ylmethyl)chroman-7-yl)pyridin-2-yl)methanesulfonamide]
19 | 261 | Cc1nnc(C[C@@H]2COc3cc(-c4ccccc4NS(=O)(=O)C(F)(F)F)ccc3[C@H]2O)s1 (single isomer, unassigned) [Example 70, 1,1,1-Trifluoro-N-(2-{(3,4-trans)-4-hydroxy-3-[(5-methyl-1,3,4-thiadiazol-2-yl)methyl]-3,4-dihydro-2H-chromen-7-yl}phenyl)-methanesulfonamide]
20 | 808 | O=S(=O)(Nc1ccccc1-c1ccc2c(c1)OC[C@@H](Cc1cscn1)[C@@H]2O)C(F)(F)F (single isomer, unassigned) [Example 51, 1,1,1-trifluoro-N-{2-[(3S,4R or 3R,4S)-4-hydroxy-3-(1,3-thiazol-4-ylmethyl)-3,4-dihydro-2H-chromen-7-yl]phenyl}-methanesulfonamide]
21 | 80 | CC(c1csc(-c2ccccc2)n1)[C@@H]1COc2cc(-c3ccccc3NS(=O)(=O)C(F)(F)F)ccc2[C@H]1O (single isomer, unassigned) [Example 92]
22 | 10 | Cc1nc(C[C@H]2COc3cc(-c4ccccc4NS(=O)(=O)C(F)(F)F)ccc3[C@@H]2O)cs1 (single isomer, unassigned) [Example 57, 1,1,1-Trifluoro-N-(2-{(3S,4R or 3R,4S)-4-hydroxy-3-[(2-methyl-1,3-thiazol-4-yl)methyl]-3,4-dihydro-2H-chromen-7-yl}phenyl)-methanesulfonamide]
23 | 30 | O=S(=O)(Nc1ccccc1-c1ccc2c(c1)OC[C@@H](Cc1ncccc1F)[C@@H]2O)C(F)(F)F (single isomer, unassigned) [Example 69, 1,1,1-Trifluoro-N-(2-{(3,4-trans)-3-[(3-fluoropyridin-2-yl)methyl]-4-hydroxy-3,4-dihydro-2H-chromen-7-yl}phenyl)methanesulfonamide]
24 | 1310 | CC(c1ccccn1)C1COc2cc(-c3cc(F)ccc3NS(=O)(=O)C(F)(F)F)ccc2C1O (single isomer, unassigned) [Example 103, 1,1,1-trifluoro-N-(4-fluoro-2-(4-hydroxy-3-(1-(pyridin-2-yl)ethyl)chroman-7-yl)phenyl) methanesulfonamide]
25 | 4050 | O=S(=O)(Nc1nccnc1-c1ccc2c(c1)OCC(Cc1ccccn1)C2O)C(F)(F)F (racemic) [Example 74, 1,1,1-Trifluoro-N-(3-((3,4-rac-trans)-4-hydroxy-3-(pyridin-2-ylmethyl)chroman-7-yl)pyrazin-2-yl)methanesulfonamide]
26 | 15 | O=S(=O)(Nc1ccccc1-c1ccc2c(c1)OC[C@H](Cc1ccccc1)[C@H]2O)C(F)(F)F (single isomer, unassigned) [Example 59, N-{2-[(3S,4R or 3R,4S)-3-benzyl-4-hydroxy-3,4-dihydro-2H-chromen-7-yl]phenyl}-1,1,1-trifluoromethanesulfonamide]
